Results reported in patent US20120329787A1, “FUNGICIDAL PYRANONES AND OXAZINONES” (E.I. DU PONT DE NEMOURS AND COMPANY, priority 2011, published 2012).
Marks after values point to notes of the source that are not given here.

Legend:
Format in all cases: in vivo
[1] = tested on: Septoria tritici; experiment: Test F: wheat leaf blotch, spray on wheat seedlings the day before inoculation
Text: General protocol for preparing test suspensions for Tests A-I: the test compounds were first dissolved in acetone in an amount equal to 3% of the final volume and then suspended at the desired concentration (in ppm) in acetone and purified water (50/50 mix by volume) containing 250 ppm of the surfactant Trem® 014 (polyhydric alcohol esters). The resulting test suspensions were then used in Tests A-I. Spraying a 200 ppm test suspension to the point of run-off on the test plants was the equivalent of a rate of 500 g/ha. […] (An asterisk “*” next to the rating value indicates a 40 ppm test suspension was used.) The test suspension was sprayed to the point of run-off on wheat seedlings. The following day, the seedlings were inoculated with a spore suspension of Septoria tritici (the causal agent of wheat leaf blotch) and incubated in a saturated atmosphere at 24° C. for 48 h, and then the seedlings were moved to a growth chamber at 20° C. for 19 additional days, after which time visual disease ratings were made. […] A dash (-) indicates no test results. All results are for 200 ppm except where followed by an asterisk “*”, which indicates a 40 ppm.

[2] = tested on: Botrytis cinerea; experiment: Test A: tomato Botrytis, spray on tomato seedlings the day before inoculation
Text: General protocol for preparing test suspensions for Tests A-I: the test compounds were first dissolved in acetone in an amount equal to 3% of the final volume and then suspended at the desired concentration (in ppm) in acetone and purified water (50/50 mix by volume) containing 250 ppm of the surfactant Trem® 014 (polyhydric alcohol esters). The resulting test suspensions were then used in Tests A-I. Spraying a 200 ppm test suspension to the point of run-off on the test plants was the equivalent of a rate of 500 g/ha. […] (An asterisk “*” next to the rating value indicates a 40 ppm test suspension was used.) The test suspension was sprayed to the point of run-off on tomato seedlings. The following day, the seedlings were inoculated with a spore suspension of Botrytis cinerea (the causal agent of tomato Botrytis) and incubated in a saturated atmosphere at 20° C. for 48 h, and then moved to a growth chamber at 24° C. for 3 additional days, after which time visual disease ratings were made. […] A dash (-) indicates no test results. All results are for 200 ppm except where followed by an asterisk “*”, which indicates a 40 ppm.

[3] = tested on: Erysiphe graminis f. sp. tritici; experiment: Test I: wheat powdery mildew, spray on wheat seedlings the day before inoculation; details: 200 ppm test suspension
Text: General protocol for preparing test suspensions for Tests A-I: the test compounds were first dissolved in acetone in an amount equal to 3% of the final volume and then suspended at the desired concentration (in ppm) in acetone and purified water (50/50 mix by volume) containing 250 ppm of the surfactant Trem® 014 (polyhydric alcohol esters). The resulting test suspensions were then used in Tests A-I. Spraying a 200 ppm test suspension to the point of run-off on the test plants was the equivalent of a rate of 500 g/ha. […] (An asterisk “*” next to the rating value indicates a 40 ppm test suspension was used.) The test suspension was sprayed to the point of run-off on wheat seedlings. The following day, the seedlings were inoculated with a spore dust of Erysiphe graminis f. sp. tritici, (the causal agent of wheat powdery mildew) and incubated in a growth chamber at 20° C. for 7 days, after which time visual disease ratings were made. […] A dash (-) indicates no test results. All results are for 200 ppm except where followed by an asterisk “*”, which indicates a 40 ppm.

[4] = tested on: Puccinia recondita f. sp. tritici; experiment: Test G: wheat leaf rust, spray on wheat seedlings after inoculation (curative); details: sprayed after inoculation
Text: General protocol for preparing test suspensions for Tests A-I: the test compounds were first dissolved in acetone in an amount equal to 3% of the final volume and then suspended at the desired concentration (in ppm) in acetone and purified water (50/50 mix by volume) containing 250 ppm of the surfactant Trem® 014 (polyhydric alcohol esters). The resulting test suspensions were then used in Tests A-I. Spraying a 200 ppm test suspension to the point of run-off on the test plants was the equivalent of a rate of 500 g/ha. […] (An asterisk “*” next to the rating value indicates a 40 ppm test suspension was used.) Wheat seedlings were inoculated with a spore suspension of Puccinia recondita f. sp. tritici (the causal agent of wheat leaf rust) and incubated in a saturated atmosphere at 20° C. for 24 h, and then moved to a growth chamber at 20° C. for 2 days. At the end of this time, the test suspension was sprayed to the point of run-off, and then the seedlings were moved to a growth chamber at 20° C. for 4 days after which time visual disease ratings were made. […] A dash (-) indicates no test results. All results are for 200 ppm except where followed by an asterisk “*”, which indicates a 40 ppm.

[5] = tested on: Alternaria solani; experiment: Test B: tomato early blight, spray on tomato seedlings the day before inoculation
Text: General protocol for preparing test suspensions for Tests A-I: the test compounds were first dissolved in acetone in an amount equal to 3% of the final volume and then suspended at the desired concentration (in ppm) in acetone and purified water (50/50 mix by volume) containing 250 ppm of the surfactant Trem® 014 (polyhydric alcohol esters). The resulting test suspensions were then used in Tests A-I. Spraying a 200 ppm test suspension to the point of run-off on the test plants was the equivalent of a rate of 500 g/ha. […] (An asterisk “*” next to the rating value indicates a 40 ppm test suspension was used.) The test suspension was sprayed to the point of run-off on tomato seedlings. The following day, the seedlings were inoculated with a spore suspension of Alternaria solani (the causal agent of tomato early blight) and incubated in a saturated atmosphere at 27° C. for 48 h, and then moved to a growth chamber at 20° C. for 5 days, after which time visual disease ratings were made. […] A dash (-) indicates no test results. All results are for 200 ppm except where followed by an asterisk “*”, which indicates a 40 ppm.

[6] = tested on: Puccinia recondita f. sp. tritici; experiment: Test H: wheat leaf rust, spray on wheat seedlings the day before inoculation; details: sprayed before inoculation
Text: General protocol for preparing test suspensions for Tests A-I: the test compounds were first dissolved in acetone in an amount equal to 3% of the final volume and then suspended at the desired concentration (in ppm) in acetone and purified water (50/50 mix by volume) containing 250 ppm of the surfactant Trem® 014 (polyhydric alcohol esters). The resulting test suspensions were then used in Tests A-I. Spraying a 200 ppm test suspension to the point of run-off on the test plants was the equivalent of a rate of 500 g/ha. […] (An asterisk “*” next to the rating value indicates a 40 ppm test suspension was used.) The test suspension was sprayed to the point of run-off on wheat seedlings. The following day, the seedlings were inoculated with a spore suspension of Puccinia recondita f. sp. tritici (the causal agent of wheat leaf rust) and incubated in a saturated atmosphere at 20° C. for 24 h, and then moved to a growth chamber at 20° C. for 6 days, after which time visual disease ratings were made Results for Tests A-I are given in Table A. […] A dash (-) indicates no test results. All results are for 200 ppm except where followed by an asterisk “*”, which indicates a 40 ppm.

[7] = tested on: Septoria nodorum; experiment: Test E: Septoria glume blotch, spray on wheat seedlings the day before inoculation
Text: General protocol for preparing test suspensions for Tests A-I: the test compounds were first dissolved in acetone in an amount equal to 3% of the final volume and then suspended at the desired concentration (in ppm) in acetone and purified water (50/50 mix by volume) containing 250 ppm of the surfactant Trem® 014 (polyhydric alcohol esters). The resulting test suspensions were then used in Tests A-I. Spraying a 200 ppm test suspension to the point of run-off on the test plants was the equivalent of a rate of 500 g/ha. […] (An asterisk “*” next to the rating value indicates a 40 ppm test suspension was used.) The test suspension was sprayed to the point of run-off on wheat seedlings. […] A dash (-) indicates no test results. All results are for 200 ppm except where followed by an asterisk “*”, which indicates a 40 ppm.

[8] = 40 ppm test suspension (asterisk)

Compound	Test F rating (100 = 100% disease control, 0 = no disease control) [1, 8]	Test A rating (100 = 100% disease control, 0 = no disease control) [2, 8]	Test I rating (100 = 100% disease control, 0 = no disease control) [3]	Test G rating (100 = 100% disease control, 0 = no disease control) [4, 8]	Test B rating (100 = 100% disease control, 0 = no disease control) [5, 8]	Test H rating (100 = 100% disease control, 0 = no disease control) [6, 8]	Test E rating (100 = 100% disease control, 0 = no disease control) [7, 8]	pest or weed control at 200 ppm ([1]; Zymoseptoria tritici, 504 h, 200 ppm test suspension, read-out: Test F rating (100 = 100% disease control, 0 = no disease control))	pest or weed control at 200 ppm ([2]; Botrytis cinerea, 120 h, 200 ppm test suspension, read-out: Test A rating (100 = 100% disease control, 0 = no disease control))	pest or weed control at 200 ppm ([3]; Blumeria graminis, 168 h, read-out: Test I rating (100 = 100% disease control, 0 = no disease control))	pest or weed control at 200 ppm ([4]; Puccinia recondita, 96 h, 200 ppm test suspension, read-out: Test G rating (100 = 100% disease control, 0 = no disease control))	pest or weed control at 200 ppm ([5]; Alternaria solani, 168 h, 200 ppm test suspension, read-out: Test B rating (100 = 100% disease control, 0 = no disease control))	pest or weed control at 200 ppm ([6]; Puccinia recondita, 168 h, 200 ppm test suspension, read-out: Test H rating (100 = 100% disease control, 0 = no disease control))	pest or weed control at 200 ppm ([7]; Parastagonospora nodorum, 264 h, 200 ppm test suspension, read-out: Test E rating (100 = 100% disease control, 0 = no disease control))	Test A rating (100 = 100% disease control, 0 = no disease control) ([2]; 200 ppm test suspension)	Test G rating (100 = 100% disease control, 0 = no disease control) ([4]; 200 ppm test suspension)	Test B rating (100 = 100% disease control, 0 = no disease control) ([5]; 200 ppm test suspension)	Test H rating (100 = 100% disease control, 0 = no disease control) ([6]; 200 ppm test suspension)	Test E rating (100 = 100% disease control, 0 = no disease control) ([7]; 200 ppm test suspension)	Test F rating (100 = 100% disease control, 0 = no disease control) ([1]; 200 ppm test suspension)
Cc1oc(=O)c(-c2ccccc2F)c(-c2ccccc2Cl)c1-c1ccc(F)cc1F [Compound 35]	99* %	100* %	97%	99* %	68* %	0* %	0* %													
COc1cc(OC)c(Cl)c(-c2c(C)noc(=O)c2-c2c(F)cc(F)cc2F)c1 [Compound 25, 4-(2-chloro-3,5-dimethoxyphenyl)-3-methyl-5-(2,4,6-trifluorophenyl)-6H-1,2-oxazin-6-one]								100%	100%	100%	100%	97%	100%	0%						
4-(2-chloro-3,5-dimethoxyphenyl)-3,6-dimethyl-5-(2,4,6-trifluorophenyl)-2H-pyran-2-one [Compound 58]	100* %		100%												100%	100%	100%	100%	100%	
COc1cc(OC)cc(-c2c(-c3c(F)cc(OC)cc3F)c(C)oc(=O)c2-c2ccccc2F)c1 [Compound 39]	100* %	100* %	79%	82* %	100* %	100* %	100* %													
COc1cc(OC)cc(-c2c(-c3c(F)cccc3F)c(C)oc(=O)c2C)c1 [Compound 51]			96%												100%	75%	0%	100%	0%	100%
COc1cc(OC)cc(-c2c(-c3ccc(F)cc3Cl)c(C)oc(=O)c2C)c1 [Compound 46]			99%												100%	79%	98%	100%	95%	100%
COc1cc(OC)cc(-c2c(-c3ccc(F)cc3F)c(C)oc(=O)c2-c2ccccc2)c1 [Compound 27]			82%												98%	93%	100%	100%	99%	99%
